Bounds are passed on as bounds.

Data on three compounds can be found in patent US6982082B1, “Gene therapy by cell specific targeting” (President and Fellows of Harvard College, priority 1996, dated 2006).

In assay [1] the test system is signaling in cells without FKBP containing the compensatory mutation. The assay is described as follows: signaling in cells not transfected with compensatory FKBP. Type of assay: cell-based.
A further assay has as its target FKBP (Homo sapiens, UniProt P62942). As to the kind of experiment: binding to FKBP, same assay. As to conditions: in words.
The next assay concerns the target FKBP12 F36V (FKBP^t−) (Homo sapiens, UniProt P62942, F37V). The assay is described as follows: Scatchard analysis of binding of radiolabeled protein to FKBP^t−.
Assay [2] deals with T1, CypA (S99T, F113G, C115M) (CypAgtm) (Homo sapiens, UniProt P62937, C115M/F113G/S99T).
T1 construct: made in house; host or cells: E. coli
The assay is described as follows: direct fluorescence binding assay, modified CypA. As to the method: (§1) To determine CpSar11-CsA's binding characteristics, both the unmodified CypA and the modified CypA (S99T, F113G, C115M) (CypAgtm) was overexpressed in E. coli and purified according to standard techniques. The binding constants for CpSar11-CsA for each receptor was determined with a direct fluorescence binding assay according to the procedure described in Belshaw, P. J., Schoepher, J. G., Lui, K-Q., Morrison, K. L. & Schreiber, S. L., Angew Chem. Int. Ed. Engl. 34:2129–32 (1995).
(§2) Kds were determined using a direct fluorescence binding assay as previously described in Belshaw et al., supra.

The next assay concerns the target T2, CypA wild type (Homo sapiens, UniProt P62937).
T2 construct: made in house; host or cells: E. coli
The assay is described as follows: direct fluorescence binding assay, wild type CypA. As to conditions: in words. The protocol:
as §1, §2

Assay [3] concerns NFAT signaling in Jurkat cells, CypAgtm + NFAT-SEAP. As to the kind of experiment: cellular NFAT-signaling assay (NFAT-SEAP reporter), Jurkat cells expressing CypAgtm. The assay is classed as cell-based. An excerpt: (§3) FIG. 1 is a graph showing the cellular assay for calcineurin-mediated NFAT-signalling.
(§4) Since it is the composite surface of Cyp-CsA that binds to and thereby inhibits the phosphatase activity of Cn and as the modifications to both the receptor and ligand were expected to be buried in the complex, it was expected that these new receptor-ligand combinations would have the ability to inhibit calcineurin (Cn) and thus NFAT mediated gene activation. This hypothesis was confirmed by using a cellular assay in which NFAT-signaling was measured on a reporter gene, as described below.
(§5) CypA and mutants were sub-cloned from pGEX based expression vectors into pBJ5, a eukaryotic expression vector containing an N-terminal FLAG epitope tag. The signaling assay was performed as previously described in Belshaw, P. J., Spencer, D. M., Crabtree, G. R. & Schreiber, S. L., Chemistry & Biology, 3:731–8 (1996). Briefly 10^7 Jurkat cells were electroporated with NFAT-SEAP reporter plasmid (1 μg) alone or in combination with a Cyp expression vector (5 μg). After 20 hours, cells were stimulated in 96 well plates with phorbol ester (PMA)(50 ng/mL) and ionomycin (1 μM), which mimics T cell activation and receptor signaling. […] Twenty-four hours later, cells were assayed for SEAP activity. The data for each transfection are presented as percent SEAP activity relative to the signal for [CpSar11-CsA]=0.

Assay [4] has as its system NFAT signaling in Jurkat cells, CypA wild type + NFAT-SEAP. As to the kind of experiment: cellular NFAT-signaling assay (NFAT-SEAP reporter), Jurkat cells coexpressing wild type CypA. The assay is classed as cell-based.
Text: as §3, §4, §5

Assay [5] relates to NFAT signaling in Jurkat cells, NFAT-SEAP alone (endogenous cyclophilins). The assay is described as follows: cellular NFAT-signaling assay, Jurkat cells transfected with NFAT-SEAP alone. Type of assay: cell-based. As to the method: as §3
as §5, with “activity.” for “activity. The data for each transfection are presented as percent SEAP activity relative to the signal for [CpSar11-CsA]=0.”

Assay [6] deals with NFAT signaling in cells expressing CypA (S99T, F113A) (CypAat). As to the kind of experiment: cellular NFAT-signaling assay, cells expressing CypAat. The assay is classed as cell-based. As to the method:
as §5
Presumably this was due to formation of endogenous Cyp-MeIle11-CsA complexes that inhibited Cn.

Sequence of FKBP12 F36V (FKBP^t−) (P62942 whole entry F37V): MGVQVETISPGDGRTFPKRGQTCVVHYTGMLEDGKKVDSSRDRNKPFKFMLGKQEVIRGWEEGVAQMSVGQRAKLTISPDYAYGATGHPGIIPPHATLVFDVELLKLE
T1 sequence (P62937 whole entry S99T/F113G/C115M): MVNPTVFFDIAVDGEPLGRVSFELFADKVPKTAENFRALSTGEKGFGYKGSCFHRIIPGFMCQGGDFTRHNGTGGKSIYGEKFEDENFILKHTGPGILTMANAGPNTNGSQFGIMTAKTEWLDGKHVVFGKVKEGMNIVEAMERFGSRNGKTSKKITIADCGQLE
T2 sequence (P62937 whole entry): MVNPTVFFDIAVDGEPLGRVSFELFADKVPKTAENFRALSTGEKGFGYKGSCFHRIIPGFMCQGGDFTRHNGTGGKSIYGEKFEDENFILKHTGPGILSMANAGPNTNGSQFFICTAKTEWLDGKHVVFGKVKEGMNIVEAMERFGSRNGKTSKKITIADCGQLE
Sequence of FKBP (P62942 whole entry): as the sequence (P62942 whole entry F37V) above, with V37F counted along it

In the case of 9-S-methoxy-FK506, the effect on signaling entry in assay [1] is reported as “no effect on signaling”. For the same compound, the “binding to endogenous FKBP” value on FKBP was “does not bind”. At FKBP12 F36V (FKBP^t−) (Scatchard analysis), this compound displayed a Kd of 5 nM. In addition, the “binding to FKBP12F36V” value at FKBP12 F36V (FKBP^t−) (in words) was “does bind”.
`C/C=C/C[C@@H](C)[C@@H](O)[C@H]1C(=O)N[C@@H](CC)C(=O)N(C)CC(=O)N(C)[C@@H](CC(C)C)C(=O)N[C@@H](C(C)C)C(=O)N(C)[C@@H](CC(C)C)C(=O)N[C@@H](C)C(=O)N[C@H](C)C(=O)N(C)[C@@H](CC(C)C)C(=O)N(C)[C@@H](CC(C)C)C(=O)N(C)[C@@H](C2CCCC2)C(=O)N1C` [CpSar11-CsA, alpha-cyclopentyl, sarcosine11-CsA]: the Kd in assay [2] (CypAgtm, read-out: Binding Constant Kd) came to 9 nM. Also, the “affinity for CypAgtm” value in assay [2] (in words) is reported as “high affinity”. In addition, the “affinity for wild type CypA” value at CypA wild type is listed as “little affinity”. Also, the IC50 is 25 nM in assay [3] (CypAgtm + NFAT-SEAP, PMA and ionomycin stimulation, read-out: IC50 in Cellular NFAT-Signalling); greater than 400 nM in [4] (CypA wild type + NFAT-SEAP, PMA and ionomycin stimulation, read-out: IC50 in Cellular NFAT-Signalling). Further, in assay [3] (cells expressing CypAgtm), the “inhibition of NFAT signaling” value is “potently inhibited NFAT signaling”. The “effect on reporter gene expression” value is given as “little or no effect” in assay [4] (concentrations up to 400 nM, cells coexpressing a wild type cyclophilin) and “little or no effect” in assay [5] (concentrations up to 400 nM, cells expressing endogenous cyclophilins alone).
As to MeIle11-CsA, the “inhibition of NFAT signaling” value is listed as “potently inhibited NFAT signaling” in [6] and “still inhibited NFAT signaling” in [5] (cells transfected with the NFAT reporter gene alone (data not shown)).
